Source: PMC10945739, “Exploring Cassia mimosoïdes as a promising natural source of steroids with potent anti-cancer, urease inhibition, and antimicrobial properties” (RSC Advances, 2024)
Converted amounts (≈) assume the structure as drawn. Like-named read-outs stand apart in the source and are kept apart here.

Assays:
[1] = test system: human HepG2 hepatic cancer cells; experiment: MTT cell viability assay; type: cell-based; conditions: Homo sapiens, HepG2, 48 h
Protocol: The human liver cells were cultivated in Dulbecco's modified Eagle medium (DMEM) in which 100 U mL^−1 penicillin, 10% fetal bovine and […] streptomycin were added and kept at 37 °C in a […] carbon dioxide induced humidified environment. The human liver cells prepared as per above procedure were then treated with synthesized compounds diluted to 0.05% DMSO concentration.
Using MTT assay, the % viability of cancer cells 36 was evaluated. According to the standard procedure, HepG2 cells were treated with various dosages of synthesized compounds for 48 hours each. The cells were then incubated for 4 hours at 37 °C with 10μ MTT reagent (5 mg mL^−1). Next, in 150 μL DMSO was added to dissolve formazan crystals. The λmax was recorded at 409 nm in a microplate reader (thermos scientific).

Jack bean urease = Jack bean urease (Canavalia ensiformis, UniProt P07374); experiment: biochemical; type: biochemical; conditions: for inhibition at 500 µM: pH 6.8, read-out: % Inhibition of urease
Protocol: The inhibition potential of the isolated compounds against urease was investigated using a SpectraMax M2 reader using 96-well microplates.
The kinetic assay involved preparing varying concentrations of both the test compound and the substrate (urea), spanning 0 μM, 5 μM, 10 μM, 15 μM, and 20 μM. The resulting data was utilized to construct a Lineweaver–Burk plot.
In 96-well plates were incubated at 37 °C for 15 min, reaction mixtures consisting of 25 μL of test compounds (each 0.5 mM), 25 μL of enzyme solution (Jack bean urease) and 55 μL of buffers containing 20.79 mM urea. The indophenol method described by Weatherburn[21] was used to determine urease inhibitor activity by measuring ammonia production. Briefly, to each well were added 70 μL of alkaline reagent (0.5% w/v NaOH and 0.1% active chloride, NaOCl) and 45 μL of phenolic reagent (1% w/v phenol and 0.005% w/v sodium nitroprusside). The microplate reader (Molecular Devices, USA) was used to measure the increase in absorbance at 650 nm after 50 min. A final volume of 245 μL was required to perform all reactions in a triplicate. The results (absorbance change per minute) were processed using SoftMax Pro software (Molecular Devices, USA). All assays were performed at pH 6.8. Inhibition percentages were calculated from the formula% Inhibition = 100 − (Abs(sample)/Abs(control)) × 100where “A” is the absorbance of the “test well” as well as the “control”. Thiourea was used as a standard.

Alternaria alternata = experiment: Antifungal bioassay, poisoned medium technique; type: cell-based; conditions: 168 h, read-out: MIC values against Alternaria alternata
Protocol: (§1) Anti-microbial assays of the isolated componds were performed against the selected strain of fungi i.e., Alternaria alternata, Aspergillus fumigatus, Aspergillus niger, and Penicillium citrii.
(§2) Alternaria alternata, Aspergillus fumigatus, Aspergillus niger, and Penicillium citrii strains were obtained from the Biotechnology lab at COMSATS University Islamabad. The antifungal activity of isolated compounds was assessed using poisoned medium technique. Two percent malt extract agar medium was generated by autoclaving at 121 °C for 30 minutes. Weighed volumes of the compounds were dissolved in […] of sterilized distilled water and put to flasks containing 59.5 mL of malt extract agar medium while they were still molten to obtain final concentrations of 100, 300, 500, 700, 900, and 1000 ppm. The control received the same amount of distilled water. Each sterile Petri plate with a diameter of 90 mm was filled with 20 mL of each medium and allowed to solidify. 5 mm diameter mycelial discs were produced from the tips of 5–7 day-old cultures of the four test fungus species and put in the center of each Petri dish using a sterile cork borer. Every treatment was duplicated three times. Plates were cultured in an incubator at 25 ± 2 °C for seven days. To calculate the rate of fungal growth, the three diameters of each colony were measured at right angles and averaged. Table 2 MIC values (μM) of the isolated compounds against Alternaria alternata, Aspergillus fumigatus, Aspergillus niger, and Penicillium citrii strains.[19]

Aspergillus niger = experiment: Antifungal bioassay, poisoned medium technique; type: cell-based; conditions: 168 h, read-out: MIC values against Aspergillus niger
Protocol: as §1, §2

Penicillium citrii = experiment: Antifungal bioassay, poisoned medium technique; type: cell-based; conditions: 168 h, read-out: MIC values against Penicillium citrii
Protocol: as §1, §2

Aspergillus fumigatus = experiment: Antifungal bioassay, poisoned medium technique; type: cell-based; conditions: 168 h, read-out: MIC values against Aspergillus fumigatus
Protocol: as §1, §2

[2] = poisoned medium, 25 ± 2 °C, seven days

Chain of Jack bean urease (P07374 whole entry, looked up): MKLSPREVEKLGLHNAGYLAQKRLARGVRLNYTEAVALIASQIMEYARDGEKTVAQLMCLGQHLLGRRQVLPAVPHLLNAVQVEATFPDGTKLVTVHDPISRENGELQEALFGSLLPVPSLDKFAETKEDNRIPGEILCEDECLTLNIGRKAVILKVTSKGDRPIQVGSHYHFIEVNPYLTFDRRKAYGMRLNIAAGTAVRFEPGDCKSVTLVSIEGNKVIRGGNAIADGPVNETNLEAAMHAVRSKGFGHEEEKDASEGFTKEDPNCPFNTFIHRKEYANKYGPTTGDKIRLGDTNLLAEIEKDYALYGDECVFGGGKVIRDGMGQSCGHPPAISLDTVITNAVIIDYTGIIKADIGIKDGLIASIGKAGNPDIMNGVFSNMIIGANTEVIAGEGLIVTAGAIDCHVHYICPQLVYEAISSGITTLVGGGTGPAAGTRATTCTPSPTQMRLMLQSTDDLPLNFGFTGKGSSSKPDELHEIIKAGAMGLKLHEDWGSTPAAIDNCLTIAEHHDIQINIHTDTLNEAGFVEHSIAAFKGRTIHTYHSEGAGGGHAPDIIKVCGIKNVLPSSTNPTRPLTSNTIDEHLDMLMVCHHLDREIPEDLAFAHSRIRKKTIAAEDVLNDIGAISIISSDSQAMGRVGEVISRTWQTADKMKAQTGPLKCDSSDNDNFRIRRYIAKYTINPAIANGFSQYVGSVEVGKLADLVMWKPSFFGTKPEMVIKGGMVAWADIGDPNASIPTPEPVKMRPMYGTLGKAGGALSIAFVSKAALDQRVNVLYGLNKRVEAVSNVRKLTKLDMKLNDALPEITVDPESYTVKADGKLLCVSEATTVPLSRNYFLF

Structure (SMILES) | inhibition at 500 µM (Jack bean urease) | MIC (Alternaria alternata; [2]) | MIC (Aspergillus niger; [2]) | MIC (Penicillium citrii; [2]) | MIC (Aspergillus fumigatus; [2]) | other results
COc1cc(O)c2c(c1)C(=O)c1cc(C)cc(O)c1C2=O [Compound 13, Physcion] | 63.5% | – | – | – | – | viability at 200 µg [1]: 87.4 ± 2.55%; IC50 (Jack bean urease): 6.24 ± 0.3 µM
CCCCCCCCCCCCCCCCCCC(=O)O [Compound 14, Nonadecanoic acid] | 80.4% | – | – | – | – | IC50 (Jack bean urease): 1.95 ± 0.31 µM
CC[C@H](CC[C@@H](C)[C@H]1CC[C@H]2[C@@H]3CC=C4C[C@@H](O)CC[C@]4(C)[C@H]3CC[C@]12C)C(C)C [Compound 15, β-Sitosterol] | 80% | – | – | – | – | viability at 200 µg [1]: 94.4 ± 4.42%; IC50 (Jack bean urease): 2.78 ± 0.24 µM
CC[C@H](CC[C@@H](C)C1CCC2C3CC=C4C[C@@H](O[C@@H]5O[C@H](CO)[C@@H](O)[C@H](O)[C@H]5O)CC[C@]4(C)C3CC[C@@]21C)C(C)C (stereo partly drawn) [Compound 16, β-Sitosterol 3-O-β-D-glucopyranoside] | 19.5% | – | – | – | – | viability at 200 µg ([1]; HepG2, MTT, 48 hours, at 200 μg): 96.4 ± 2.2%
Cc1cc(O)c2c(c1)C(=O)c1cc(O)cc(O)c1C2=O [Emodin] | – | 0.01 ± 0.006 µM (≈ 2.7 ng/mL) | 0.04 ± 0.003 µM (≈ 10.8 ng/mL) | 0.045 ± 0.005 µM (≈ 12.2 ng/mL) | 0.035 ± 0.005 µM (≈ 9.46 ng/mL) | –
COc1cc(O)cc2oc(-c3ccc(O)c(O)c3)cc(=O)c12 [Luteolin-5-methyl ether] | – | 0.03 ± 0.006 µM (≈ 9.01 ng/mL) | 0.01 ± 0.006 µM (≈ 3 ng/mL) | 0.06 ± 0.004 µM (≈ 18 ng/mL) | 0.04 ± 0.002 µM (≈ 12 ng/mL) | –
O=c1cc(-c2ccc(O)c(O)c2)oc2cc(O)c([C@@H]3O[C@H](CO)[C@@H](O)[C@H](O)[C@H]3O)c(O)c12 [Luteolin-6-C-β-D-glucopyranoside] | – | 0.06 ± 0.007 µM (≈ 26.9 ng/mL) | 0.0072 ± 0.0003 µM (≈ 3.23 ng/mL) | 0.022 ± 0.003 µM (≈ 9.86 ng/mL) | 0.25 ± 0.003 µM (≈ 112 ng/mL) | –
O=c1cc(-c2ccc(O)c(O)c2)oc2c([C@@H]3O[C@H](CO)[C@@H](O)[C@H](O)[C@H]3O)c(O)cc(O)c12 [Luteolin-8-C-β-D-glucopyranoside] | – | – | – | – | – | MIC (Alternaria alternata): 0.021 ± 0.005 µM (≈ 9.42 ng/mL); MIC (Aspergillus niger): 0.013 ± 0.006 µM (≈ 5.83 ng/mL); MIC (Penicillium citrii): 0.015 ± 0.008 µM (≈ 6.73 ng/mL); MIC (Aspergillus fumigatus): 0.014 ± 0.005 µM (≈ 6.28 ng/mL)
COc1cc(O)c2c(c1)C(=O)c1cc(C)cc(O)c1C2=O [Physcion] | – | 0.015 ± 0.005 µM (≈ 4.26 ng/mL) | 0.09 ± 0.009 µM (≈ 25.6 ng/mL) | 0.03 ± 0.005 µM (≈ 8.53 ng/mL) | 0.035 ± 0.006 µM (≈ 9.95 ng/mL) | –
CCC(CCC(C)C1CCC2C3CC(=O)C4=CC(=O)CCC4(C)C3CCC12C)C(C)C (stereo not shown) [Stigmast-4-en-3,6-dione] | – | 0.15 ± 0.005 µM (≈ 64 ng/mL) | 0.02 ± 0.006 µM (≈ 8.53 ng/mL) | 0.04 ± 0.003 µM (≈ 17.1 ng/mL) | 0.125 ± 0.0015 µM (≈ 53.3 ng/mL) | –
CC[C@H](CC[C@@H](C)[C@H]1CC[C@H]2[C@@H]3C[C@H](O)C4=C[C@@H](O)CC[C@]4(C)[C@H]3CC[C@]12C)C(C)C [Stigmast-4-en-3β,6α-diol] | – | 0.045 ± 0.003 µM (≈ 19.4 ng/mL) | 0.015 ± 0.005 µM (≈ 6.46 ng/mL) | 0.2 ± 0.03 µM (≈ 86.1 ng/mL) | 0.01 ± 0.006 µM (≈ 4.31 ng/mL) | –
CCC(CCC(C)C1CCC2C3CC(O)C4=CC(=O)CCC4(C)C3CCC12C)C(C)C (stereo not shown) [Synthesized compound] | 69% | – | – | – | – | IC50 (Jack bean urease; read-out: IC50 ± SEM, urease, pH 6.8): 8.03 ± 0.19 µM
NC(N)=S [thiourea, reference compound] | – | – | – | – | – | IC50 (Jack bean urease; pH 6.8, read-out: IC50 ± SEM, urease): 18.61 ± 0.11 µM; IC50 (Jack bean urease; read-out: IC50, urease (conclusions)): 18.61 ± 0.11 µM; % Inhibition of urease (Jack bean urease; test compounds each 0.5 mM, pH 6.8): 86.73%
